Data from ChEMBL document CHEMBL4715813, “Allicin-inspired pyridyl disulfides as antimicrobial agents for multidrug-resistant Staphylococcus aureus” (Eur J Med Chem, 2018).

Legend:
Assay type in all cases: functional
Pseudomonas aeruginosa = test: Antibacterial activity against Pseudomonas aeruginosa ATCC 15422 assessed as zone of inhibition by disc diffusion method; further: test concentration or dose not given here
Staphylococcus aureus [1] = test: Antibacterial activity against vancomycin-intermediate resistant Staphylococcus aureus Mu50 ATCC 700699 assessed as zone of inhibition by disc diffusion method; further: test concentration or dose not given here
Staphylococcus aureus [2] = test: Antibacterial activity against community acquired methicillin-resistant Staphylococcus aureus BAA 1747 assessed as zone of inhibition by disc diffusion method; further: test concentration or dose not given here
Klebsiella pneumoniae = test: Antibacterial activity against multidrug-resistant Klebsiella pneumoniae ATCC 700603 assessed as zone of inhibition by disc diffusion method; further: test concentration or dose not given here
Acinetobacter baumannii [3] = test: Antibacterial activity against multidrug-resistant Acinetobacter baumannii BAA 1605 assessed as zone of inhibition by disc diffusion method; further: test concentration or dose not given here
Enterococcus faecalis = test: Antibacterial activity against vancomycin-susceptible Enterococcus faecalis ATCC 29212 assessed as zone of inhibition by disc diffusion method; further: test concentration or dose not given here
[4] = test system: Staphylococcus epidermidis; test: Antibacterial activity against Staphylococcus epidermidis ATCC 14990 assessed as zone of inhibition by disc diffusion method; further: test concentration or dose not given here
Staphylococcus aureus [5] = test: Antibacterial activity against hospital acquired methicillin-resistant Staphylococcus aureus ATCC 43300 assessed as zone of inhibition by disc diffusion method; further: test concentration or dose not given here
Acinetobacter baumannii [6] = test: Antibacterial activity against Acinetobacter baumannii ATCC 19606 assessed as zone of inhibition by disc diffusion method; further: test concentration or dose not given here
Bacillus anthracis = test: Antibacterial activity against Bacillus anthracis Sterne 34F2 assessed as zone of inhibition by disc diffusion method
Staphylococcus aureus [7] = test: Antibacterial activity against vancomycin-resistant Staphylococcus aureus HIP11714 assessed as zone of inhibition by disc diffusion method; further: test concentration or dose not given here
Enterococcus faecium = test: Antibacterial activity against vancomycin-resistant Enterococcus faecium ATCC 700221 assessed as zone of inhibition by disc diffusion method; further: test concentration or dose not given here
Staphylococcus aureus [8] = test: Antibacterial activity against heterogeneous vancomycin-intermediate resistant Staphylococcus aureus Mu3 ATCC 700698 assessed as zone of inhibition by disc diffusion method; further: test concentration or dose not given here
Escherichia coli = test: Antibacterial activity against beta-lactam resistant Escherichia coli BAA 2326 assessed as zone of inhibition by disc diffusion method; further: test concentration or dose not given here
Enterobacter cloacae = test: Antibacterial activity against Enterobacter cloacae ATCC 23355 assessed as zone of inhibition by disc diffusion method; further: test concentration or dose not given here
Staphylococcus aureus [9] = test: Antibacterial activity against methicillin-susceptible Staphylococcus aureus ATCC 25923 assessed as zone of inhibition by disc diffusion method; further: test concentration or dose not given here

Row | SMILES | diameter of the inhibition zone (DIZ) (Pseudomonas aeruginosa) [mm] | diameter of the inhibition zone (DIZ) (Staphylococcus aureus [1]) [mm] | diameter of the inhibition zone (DIZ) (Staphylococcus aureus [2]) [mm] | diameter of the inhibition zone (DIZ) (Klebsiella pneumoniae) [mm] | diameter of the inhibition zone (DIZ) (Acinetobacter baumannii [3]) [mm] | diameter of the inhibition zone (DIZ) (Enterococcus faecalis) [mm] | diameter of the inhibition zone (DIZ) [4] [mm] | diameter of the inhibition zone (DIZ) (Staphylococcus aureus [5]) [mm] | diameter of the inhibition zone (DIZ) (Acinetobacter baumannii [6]) [mm] | diameter of the inhibition zone (DIZ) (Bacillus anthracis) [mm] | diameter of the inhibition zone (DIZ) (Staphylococcus aureus [7]) [mm] | diameter of the inhibition zone (DIZ) (Enterococcus faecium) [mm] | diameter of the inhibition zone (DIZ) (Staphylococcus aureus [8]) [mm] | diameter of the inhibition zone (DIZ) (Escherichia coli) [mm] | diameter of the inhibition zone (DIZ) (Enterobacter cloacae) [mm] | diameter of the inhibition zone (DIZ) (Staphylococcus aureus [9]) [mm]
1 | CSSc1ccccn1 | 0 | 13 | 21 | 0 | 15 | 23 | 21 | 25 | 21 | 48 | 12 | 0 | 12 | 12 | 10 | 20
2 | CC(C)SSc1ccccn1 | 0 | 0 | 0 | 0 | 0 | 0 | 13 | 0 | 0 | 0 | 0 | 0 | 0 | 0 | 0 | 0
3 | CCSSc1ccccn1 | 0 | 0 | 13 | 0 | 12 | 15 | 26 | 12 | 18 | 50 | 0 | 0 | 0 | 0 | 10 | 13
4 | CCCCSSc1ccccn1 | 0 | 0 | 0 | 0 | 0 | 15 | 22 | 0 | 0 | 48 | 0 | 0 | 0 | 0 | 9 | 0
5 | c1ccc(CSSc2ccccn2)cc1 | 0 | 23 | 20 | 0 | 0 | 14 | 38 | 28 | 9 | 38 | 30 | 14 | 19 | 0 | 0 | 26
6 | CC(C)C(C)SSc1ccccn1 (stereo not drawn) | 0 | 0 | 0 | 0 | 0 | 0 | 24 | 0 | 0 | 21 | 0 | 0 | 0 | 0 | 0 | 0
7 | c1ccc(SSC2CCCCC2)nc1 | 0 | 0 | 14 | 0 | 0 | 0 | 24 | 12 | 0 | 26 | 0 | 0 | 18 | 0 | 0 | 11
8 | CCCSSc1ccccn1 | 0 | 0 | 0 | 0 | 0 | 11 | 30 | 0 | 12 | 33 | 0 | 0 | 0 | 0 | 9 | 0
9 | CC(C)CSSc1ccccn1 | 0 | 0 | 0 | 0 | 0 | 0 | 40 | 0 | 0 | 50 | 0 | 0 | 0 | 0 | 0 | 0
10 | c1ccc(SSC2CCCC2)nc1 | 0 | 0 | 16 | 0 | 0 | 0 | 25 | 14 | 0 | 22 | 0 | 0 | 11 | 0 | 0 | 9
11 | CC(C)CCSSc1ccccn1 | 0 | 12 | 0 | 0 | 0 | 0 | >50 | 0 | 0 | >50 | 14 | 0 | 11 | 0 | 0 | 0
12 | CCC(C)SSc1ccccn1 (stereo not drawn) | 0 | 0 | 0 | 0 | 0 | 0 | 20 | 0 | 0 | 23 | 0 | 0 | 0 | 0 | 0 | 0
13 | CCCCCCCCCCSSc1ccccn1 | 0 | 11 | 15 | 0 | 0 | 9 | 26 | 14 | 0 | 28 | 11 | 9 | 0 | 0 | 0 | 12
